Experimental data reported in ChEMBL document CHEMBL3507680, “University of Dundee, Gates Library screen for HepG2 cell viability”.

Test: Human HepG2 cell viability assay in 384 well format
Format: toxicity, cell-based
Parameters: dose 125 nL, time 70.5 hour; cytotoxicity at 70.5 h: concentration not given beside the values
Details: HepG2 cells, read-out: Inhibition

SMILES: NS(=O)(=O)c1cccnc1Nc1cccc(Cl)c1Cl
- cytotoxicity at 70.5 h: 3.67%

SMILES: CCc1ncc(C(=O)c2ccc(OC)cc2)n1C
- cytotoxicity at 70.5 h: 17.9%

SMILES: CN(C(=O)c1ccco1)c1nc2c(s1)CCCC2
- cytotoxicity at 70.5 h: -3.33%

SMILES: CCc1ccc(OCCn2cccn2)cc1
- cytotoxicity at 70.5 h: 23.9%

SMILES: CNc1cc(-c2cc(OC)c(OC)c(OC)c2)ncn1
- cytotoxicity at 70.5 h: -6.66%

SMILES: Cc1cc(C(=O)NCc2ccccn2)no1
- cytotoxicity at 70.5 h: -6.09%

SMILES: O=C1CCCc2nccc(-c3ccccc3)c21
- cytotoxicity at 70.5 h: 23.5%

SMILES: Cc1cc2nc(CN(C)c3ccccc3)cc(=O)n2o1
- cytotoxicity at 70.5 h: 3.13%

SMILES: Cc1nc(C)c(CN2CCOC(Cc3ccccc3Cl)C2)nc1C (stereo unspecified)
- cytotoxicity at 70.5 h: -2.34%

SMILES: COc1ccc2c(ccn2CCC(=O)O)c1
- cytotoxicity at 70.5 h: 27.9%

SMILES: CC(C)CC(NC(=O)OC(C)(C)C)C(N)=O (stereo unspecified)
- cytotoxicity at 70.5 h: 20.5%

SMILES: Cn1ncc2c1CCCN(C(=O)C1CCCC1)C2
- cytotoxicity at 70.5 h: -0.407%

SMILES: N#Cc1ncn(CCC(=O)Nc2ccc(Cl)cc2F)n1
- cytotoxicity at 70.5 h: -7.28%

SMILES: CC(C)c1ccc(CNC(C)c2ccc(S(C)(=O)=O)cc2)cc1 (stereo unspecified)
- cytotoxicity at 70.5 h: -8.82%

SMILES: Cc1ccc(S(=O)(=O)N2CCN(CCC#N)CC2)s1
- cytotoxicity at 70.5 h: 7.61%

SMILES: N[C@@H](Cc1ccccc1)c1nnc(S(=O)(=O)Cc2ccccc2)o1
- cytotoxicity at 70.5 h: 15.6%

SMILES: COc1ccnc(NC2CCN(CC(=O)Nc3ccccc3)CC2)n1
- cytotoxicity at 70.5 h: 4.43%

SMILES: CCN1CCN(C(=O)c2ccn(C)c(=O)c2)CC1
- cytotoxicity at 70.5 h: 32.5%

SMILES: CCN(CC)S(=O)(=O)c1ccc(C(=O)NC(C)(C#N)C2CC2)cc1 (stereo unspecified)
- cytotoxicity at 70.5 h: 19.1%

SMILES: O=C(N1CCCCC1)N1CCN(CC(O)c2ccc(F)cc2)CC1 (stereo unspecified)
- cytotoxicity at 70.5 h: -7.9%

SMILES: Cc1n[nH]c(=O)c2c(NC(=O)CN3CCOC(C)C3)oc(C)c12 (stereo unspecified)
- cytotoxicity at 70.5 h: 12.5%

SMILES: CN(CC(=O)N1CCCC1)C(=O)c1ccccc1Nc1ccccc1
- cytotoxicity at 70.5 h: 18.3%

SMILES: CC(C)(C)c1nnnn1CC(=O)N(CCC#N)c1ccccc1
- cytotoxicity at 70.5 h: -9.07%

SMILES: Cn1ccc(C(=O)NCCOc2ccc(C(C)(C)C)cc2)cc1=O
- cytotoxicity at 70.5 h: -4.21%

SMILES: O=C(NCCSC1CCCC1)c1cc(C2CC2)on1
- cytotoxicity at 70.5 h: -0.97%

SMILES: CC(=O)N(C)Cc1ccccc1NCc1c(C)noc1C
- cytotoxicity at 70.5 h: -3.61%

SMILES: CC(=O)c1ccc(OCC(=O)c2cccn2C)cc1
- cytotoxicity at 70.5 h: -0.625%

SMILES: O=C(C1CC(c2ccccc2)=NO1)N1CCc2ccccc21 (stereo unspecified)
- cytotoxicity at 70.5 h: 28.5%

SMILES: CCC(NS(C)(=O)=O)c1ccccc1OC (stereo unspecified)
- cytotoxicity at 70.5 h: -1.94%

SMILES: O=C(CCn1cccn1)NCCOc1cccc(Cl)c1
- cytotoxicity at 70.5 h: -7.23%

SMILES: Cc1ccc(NCc2ccccc2C#N)cc1-n1cnnn1
- cytotoxicity at 70.5 h: 0.552%

SMILES: CN(C)C(=O)C1CCCN1c1ncnc2ccsc12 (stereo unspecified)
- cytotoxicity at 70.5 h: -10.1%

SMILES: CN1CCC(CNC(=O)c2cccc(C(F)(F)F)c2)c2ccccc21 (stereo unspecified)
- cytotoxicity at 70.5 h: 0.294%

SMILES: Cc1nnc(NCc2cccc(OCC3CCCO3)c2)c(C#N)c1C (stereo unspecified)
- cytotoxicity at 70.5 h: 29%

SMILES: CS(=O)(=O)c1ccc(NCC2CCCO2)c(S(C)(=O)=O)c1 (stereo unspecified)
- cytotoxicity at 70.5 h: -9.12%

SMILES: CCn1cnnc1CNc1nc(C)nc2scc(CC(C)C)c12
- cytotoxicity at 70.5 h: -15.9%

SMILES: Cc1cc(NCCc2nc(C)cs2)nc(-c2cccnc2)n1
- cytotoxicity at 70.5 h: -9.72%

SMILES: Cn1cc(S(=O)(=O)N(CC(F)(F)F)C2CC2)cc1C(N)=O
- cytotoxicity at 70.5 h: -4.65%

SMILES: N#Cc1ncn(CC(=O)Cc2c(F)cccc2Cl)n1
- cytotoxicity at 70.5 h: -5.66%

SMILES: Cc1c(C(C)Nc2ncnc3sccc23)cnn1C (stereo unspecified)
- cytotoxicity at 70.5 h: -8.04%

SMILES: Cc1nnc(NCc2cccc(OCc3ccccn3)c2)c(C#N)c1C
- cytotoxicity at 70.5 h: -4.44%

SMILES: c1cc(CNCCc2cn3ccccc3n2)c2c(c1)OCCCO2
- cytotoxicity at 70.5 h: -6.72%

SMILES: Cc1cc(C)c2cc(C(=O)N3CCN(Cc4ccco4)CC3)[nH]c2c1
- cytotoxicity at 70.5 h: -13.2%

SMILES: Cc1csc(NC(=O)CN(C)CCOc2cccc(F)c2)n1
- cytotoxicity at 70.5 h: 15.2%

SMILES: Cc1ccccc1OCCn1cnc2oc(C)c(C(=O)O)c2c1=O
- cytotoxicity at 70.5 h: -7.96%

SMILES: CNC(=O)Nc1cc(-c2ccccc2C)nn1CCO
- cytotoxicity at 70.5 h: 21.1%

SMILES: CN(C(=O)CCNC(=O)NC1CCCCC1)c1ccccc1
- cytotoxicity at 70.5 h: 38.6%

SMILES: COc1ccc(NC(=O)NCC(O)c2ccc(F)cc2F)c(OC)c1 (stereo unspecified)
- cytotoxicity at 70.5 h: 2.76%

SMILES: CC1CCN(C(=O)c2ccnc(-n3cncn3)c2)c2ccccc21 (stereo unspecified)
- cytotoxicity at 70.5 h: 13.2%

SMILES: CNC(=O)NC(=O)CSc1ccc2c(c1)CCC2
- cytotoxicity at 70.5 h: -5.43%

SMILES: CCN1C(=O)CC(N(C)Cc2nc3ccccc3c(=O)[nH]2)C1=O (stereo unspecified)
- cytotoxicity at 70.5 h: -7.75%

SMILES: Cc1ccccc1CSCCn1nc2ccccn2c1=O
- cytotoxicity at 70.5 h: -9.36%

SMILES: CN1C(=O)C2(NC(=O)c3ccccc3O2)c2ccccc21 (stereo unspecified)
- cytotoxicity at 70.5 h: -16.5%

SMILES: Cc1n[nH]c(C(=O)NCc2ccnc(OCC(F)(F)F)c2)c1Br
- cytotoxicity at 70.5 h: -4.39%

SMILES: O=C(Nc1cccc(OCc2cccc(F)c2)c1)C1COCCO1 (stereo unspecified)
- cytotoxicity at 70.5 h: -0.586%

SMILES: CNC(=O)c1cc2ccccc2n1C
- cytotoxicity at 70.5 h: 16.4%

SMILES: CN(C)S(=O)(=O)N1CCN(c2cc(-n3cccc3)ncn2)CC1
- cytotoxicity at 70.5 h: -6%

SMILES: Cn1cc(C(=O)OC2CN(c3nc4c(C(F)(F)F)cccc4s3)C2)nn1
- cytotoxicity at 70.5 h: 1.02%

SMILES: CCOCC(=O)N1CCC(CSCc2ccco2)CC1
- cytotoxicity at 70.5 h: -10.8%

SMILES: O=C(CN1C(=O)CCC1=O)N1CCC(CSCc2ccco2)CC1
- cytotoxicity at 70.5 h: -4.52%

SMILES: O=C(c1ccc2[nH]cnc2c1)N1CCC(Oc2cccnc2)CC1
- cytotoxicity at 70.5 h: -6.98%

SMILES: CCCNC(=O)c1ccc2c(OC)n(C)nc2c1
- cytotoxicity at 70.5 h: 0.507%

SMILES: O=c1ccc2c([nH]1)CCN(S(=O)(=O)c1ccc3c(c1)OCCO3)C2
- cytotoxicity at 70.5 h: 1.39%

SMILES: O=C(CN1C(=O)CCC1=O)N1CCOC2(CCOCC2)C1
- cytotoxicity at 70.5 h: 29.6%

SMILES: O=C(CN1C(=O)c2ccccc2C1=O)N1CCOC2(CCOCC2)C1
- cytotoxicity at 70.5 h: 3.73%

SMILES: CN(C)CC1CSCCCN1S(=O)(=O)Cc1cccc(F)c1 (stereo unspecified)
- cytotoxicity at 70.5 h: -3.38%

SMILES: COc1cccc(CC(=O)N2CCCSCC2CN2CCCC2)c1 (stereo unspecified)
- cytotoxicity at 70.5 h: -3.04%

SMILES: O=C(COc1ccc(Cl)cc1Cl)N1CCCSCC1CN1CCOCC1 (stereo unspecified)
- cytotoxicity at 70.5 h: 0.222%

SMILES: Cc1cnc2n(c1=O)CC(C(=O)NCc1ccccc1Cl)CS2 (stereo unspecified)
- cytotoxicity at 70.5 h: 2.42%

SMILES: Cc1ccc(Cl)cc1NC(=O)C1CSc2ncc(C)c(=O)n2C1 (stereo unspecified)
- cytotoxicity at 70.5 h: -13.9%

SMILES: CC(C)(C)c1cc(=O)n2c(n1)SCC(C(=O)NCc1ccccn1)C2 (stereo unspecified)
- cytotoxicity at 70.5 h: -5.78%

SMILES: CC(C)(C)c1cc(=O)n2c(n1)SCC(C(=O)NCc1ccco1)C2 (stereo unspecified)
- cytotoxicity at 70.5 h: 29.2%

SMILES: CCc1c(C)nc2n(c1=O)CC(C(=O)Nc1sccc1C(=O)OC)CS2 (stereo unspecified)
- cytotoxicity at 70.5 h: -6.34%

SMILES: CN(C)c1ccc(C(O)CNS(=O)(=O)C2CC2)cc1 (stereo unspecified)
- cytotoxicity at 70.5 h: 10.1%

SMILES: CCCc1nnsc1C(=O)NCC(O)c1ccc(SC)cc1 (stereo unspecified)
- cytotoxicity at 70.5 h: 28.8%

SMILES: COCCN(Cc1ccoc1)C(=O)CSc1ccc(F)cc1
- cytotoxicity at 70.5 h: -5.61%

SMILES: COCCN(Cc1ccoc1)S(=O)(=O)c1ccc(F)c(Cl)c1
- cytotoxicity at 70.5 h: 42.1%

SMILES: COCCN(Cc1ccoc1)S(=O)(=O)c1cccc(C(F)(F)F)c1
- cytotoxicity at 70.5 h: -13.5%

SMILES: CCOc1ccccc1C(=O)NCCC(O)c1ccoc1 (stereo unspecified)
- cytotoxicity at 70.5 h: 9.07%

SMILES: O=C(COc1ccccc1F)NCCC(O)c1ccoc1 (stereo unspecified)
- cytotoxicity at 70.5 h: -4.07%

SMILES: COc1cc(CNC(C)Cn2cccn2)cc(OC)c1OC (stereo unspecified)
- cytotoxicity at 70.5 h: -7.54%

SMILES: CC(NCc1ccc(OCC(N)=O)cc1)c1ccc(Cl)c(Cl)c1 (stereo unspecified)
- cytotoxicity at 70.5 h: -8.72%

SMILES: Cc1nn(CCC#N)c(C)c1CCC(=O)N(C)C
- cytotoxicity at 70.5 h: 13.3%

SMILES: COc1cc2c(cc1CNCc1cccnc1-n1cccn1)OC(C)C2 (stereo unspecified)
- cytotoxicity at 70.5 h: 16.8%

SMILES: CC(NCc1cnc(N2CCOCC2)nc1)c1ccc(Cl)s1 (stereo unspecified)
- cytotoxicity at 70.5 h: -9.24%

SMILES: COc1ccc(C2CC(=O)c3c(O)cc(O)cc3O2)cc1O (stereo unspecified)
- cytotoxicity at 70.5 h: -9.21%
